The record followed here is patent US3954793A, “1-(2-Propynyl)-1 H-indazole compounds” (priority 1973, dated 1976).

Series [1] has as its system German male cockroaches (Blatella Germanicus). Description: topical application to thorax, 24 hour mortality of German male cockroaches. It counts as in vivo. The conditions noted are these: for percent insect mortality, synergist alone (GS 13005 test doses): synergist doses of Table XXXXI; for percent insect mortality, synergist alone (GS 13005 test doses) / percent insect mortality, synergist alone (mobam test doses): no insecticide; for percent insect mortality, synergist alone (mobam test doses): synergist doses of Table XXXX. The protocol:
The synergistic effect with mobam of synergist compounds I-B, II-H, II-K and IV-C is further illustrated by the 24 hour mortality data of German male cockroaches (Blatella Germanicus) shown in Table XXXX. The synergists and insecticide were diluted in acetone and applied in small droplets to the thorax of the insect. These doses of synergist alone gave zero percent insect mortality.
The synergistic effect with GS 13005 of compounds I-B, II-H, II-K, II-P, II-Q, II-R and IV-C is illustrated by the 24 hour mortality of German male cockroaches shown in Table XXXXI. These doses of synergist alone caused zero percent insect mortality.

Series [2] has as its system IN/WHO strain house flies. Description: topical application, percent kill after 24 hours, susceptible IN/WHO strain. In kind it is in vivo, female). The conditions noted are these: for percent kill after 24 hours, with Diazinon: Diazinon 0.03 + synergist 0.15 μg/fly; for percent kill after 24 hours, synergist alone (GS 13005 part of Table XXXI): GS 13005 0, synergist 1 μg/fly; for percent kill after 24 hours, synergist alone: insecticide 0, synergist 1 μg/fly. A digest of the protocol:
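Insecticide plus synergist in acetone, 1.0 μl applied to the thorax of CO2-anesthetized 3-to-5-day-old female IN/WHO house flies, doses in μg/fly. Flies held 10 per dish, 3-5 dishes per treatment, with skim milk. Percent mortality scored after 24 h.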

The subject of series [3] is Wilson strain house flies. It counts as in vivo, Wilson strain (susceptible). The conditions noted are these: for Contact Synergistic Ratio, Pyrolan: LC50 pyrolan alone / LC50 with synergist, synergist to insecticide 5:1 by weight; for Contact Synergistic Ratio, Carbaryl: in vivo. A digest of the protocol:
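Wilson strain house flies held at room temperature in glass jars coated with acetone-deposited insecticide film, alone or with synergist at 5:1 synergist:insecticide by weight.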

The mark [4] stands for this setting: GS 13005 dose 0.08 + synergist 0.40, pretreated with synergist two hours before insecticide.
The mark [5] stands for this setting: GS 13005 dose 0.08 + synergist 4.0, cockroaches.
The mark [6] stands for this setting: GS 13005 0.05 + synergist 0.25 μg/fly.
Where [7] appears, read: GS 13005 0.10 + synergist 0.125 μg/fly.
The mark [8] stands for this setting: GS 13005 0.10 + synergist 0.25 μg/fly.
Setting [9] is: GS 13005 0.10 + synergist 0.50 μg/fly.
The mark [10] stands for this setting: Mobam dose 0.12 + synergist 0.60, pretreated with synergist two hours before insecticide.
Setting [11] is: Mobam dose 0.16 + synergist 0.80, cockroaches.
Setting [12] is: Mobam 0.20 + synergist 0.25 μg/fly.
The mark [13] stands for this setting: Mobam 0.20 + synergist 0.50 μg/fly.
[14] abbreviates: Mobam 0.20 + synergist 1 μg/fly.

In the case of `C#CCOCc1ccccc1[N+](=O)[O-]` [II-P, 2-nitrobenzyl 2-propynyl ether], the “24 hour mortality, with GS 13005” value in series [1] (setting [4]) stood at 90%; in series [1] (setting [5]), 60%. Further, in series [1], the “percent insect mortality, synergist alone (GS 13005 test doses)” value is reported as “zero”. Moreover, in series [2], the “percent kill after 24 hours, with Diazinon” value (“percent kill … with Diazinon” below) came to 30%. For the same compound, the “percent kill after 24 hours, synergist alone (GS 13005 part of Table XXXI)” value (“percent kill … (GS 13005 part of Table XXXI)” for short) in series [2] was found to be 0%. The “percent kill after 24 hours, with GS 13005” value (shortened to “percent kill … with GS 13005”) in series [2] (setting [6]) is reported as 10%; in series [2] (setting [7]), 69%; in series [2] (setting [8]) it was 85%; in series [2] (setting [9]), 96%. In addition, in series [2], the “percent kill after 24 hours, synergist alone” value is 0%.

As for `C#CCOCc1ccc([N+](=O)[O-])cc1` [II-Q, 4-nitrobenzyl 2-propynyl ether], in series [1] (setting [4]), the “24 hour mortality, with GS 13005” value was 95%. The “percent insect mortality, synergist alone (GS 13005 test doses)” value in series [1] is “zero”. Moreover, the “percent kill … (GS 13005 part of Table XXXI)” value in series [2] was 0%. Also, the “percent kill … with GS 13005” value in series [2] (setting [6]) worked out at 25%; in series [2] (setting [7]), 43%; in series [2] (setting [8]) it was 67%; in series [2] (setting [9]), 90%.

As for `C#CCON=Cc1cccc([N+](=O)[O-])c1` [I-B], the “24 hour mortality, with GS 13005” value in series [1] (setting [4]) was 95%; in series [1] (setting [5]), 40%. For the same compound, the results for the “24 hour mortality, with Mobam” value in series [1] (setting [10]) and in series [1] (setting [11]) were 80% and 50%, respectively. The “percent insect mortality, synergist alone (mobam test doses)” value in series [1] was “zero”. The “percent insect mortality, synergist alone (GS 13005 test doses)” value in series [1] is recorded as “zero”. The “Contact Synergistic Ratio, Pyrolan” value in series [3] was 35. In addition, the “Contact Synergistic Ratio, Carbaryl” value in series [3] worked out at 270. Further, in series [2], the “percent kill … with Diazinon” value came out at 22%. Further, the “percent kill … with GS 13005” value in series [2] (setting [6]) stood at 2%; in series [2] (setting [7]) it was 13%; in series [2] (setting [8]) it was 27%; in series [2] (setting [9]), 73%. Besides, the “percent kill after 24 hours, with Mobam” value stood at 0% in series [2] (Mobam 0.05 + synergist 0.25 μg/fly); 0% in series [2] (Mobam 0.10 + synergist 0.50 μg/fly); 13% in series [2] (setting [12]); 30% in series [2] (setting [13]); 73% in series [2] (setting [14]). Further, the “percent kill after 24 hours, synergist alone” value in series [2] turned out to be 0%.

For `C#CCOCc1c(Cl)cccc1Cl` [II-H], in series [1] (setting [4]), the “24 hour mortality, with GS 13005” value was 100%. The “24 hour mortality, with Mobam” value in series [1] (setting [10]) came to 90%. For the same compound, in series [1], the “percent insect mortality, synergist alone (mobam test doses)” value was “zero” and the “percent insect mortality, synergist alone (GS 13005 test doses)” value is on record as “zero”. Further, in series [3], the “Contact Synergistic Ratio, Pyrolan” value is given as 40 and the “Contact Synergistic Ratio, Carbaryl” value was determined as 300. Further, in series [2], the “percent kill … (GS 13005 part of Table XXXI)” value was 10% and the “percent kill after 24 hours, synergist alone” value is given as 10%. In addition, the “percent kill … with GS 13005” value in series [2] (setting [9]) came out at 100%. Besides, the “percent kill after 24 hours, with Mobam” value in series [2] (setting [14]) is 100%.

Consider `C#CCOCc1c(Cl)cccc1[N+](=O)[O-]` [II-K], for which the “24 hour mortality, with GS 13005” value in series [1] (setting [4]) turned out to be 100%. Moreover, in series [1] (setting [10]), the “24 hour mortality, with Mobam” value was 100%. In series [1], the “percent insect mortality, synergist alone (mobam test doses)” value is recorded as “zero”. For the same compound, the “percent insect mortality, synergist alone (GS 13005 test doses)” value in series [1] is on record as “zero”. The “24 hour percent mortality, Baygon with five parts II-K” value in series [2] (Baygon 0.125 μg/fly, five parts synergist) worked out at 83%. Moreover, the “24 hour percent mortality, Bidrin with five parts II-K” value came to 0% in series [2] (Bidrin 0.063 μg/fly, five parts synergist) and 57% in series [2] (Bidrin 0.13 μg/fly, five parts synergist). In addition, the “24 hour percent mortality, Dimetilan with five parts II-K” value in series [2] (Dimetilan 0.031 μg/fly, five parts synergist) is 7%; in series [2] (Dimetilan 0.063 μg/fly, five parts synergist) it was 70%; in series [2] (Dimetilan 0.13 μg/fly, five parts synergist) it was 100%. For the same compound, the “percent kill … (GS 13005 part of Table XXXI)” value in series [2] is 10%. In series [2] (setting [9]), the “percent kill … with GS 13005” value is given as 100%. The “24 hour percent mortality, Gardona with five parts II-K” value is 63% in series [2] (Gardona 0.031 μg/fly, five parts synergist) and 100% in series [2] (Gardona 0.063 μg/fly, five parts synergist). For the same compound, in series [2] (HRS 1422 0.125 μg/fly, five parts synergist), the “24 hour percent mortality, HRS 1422 with five parts II-K” value came to 77%. Further, the “percent kill after 24 hours, with Mobam” value in series [2] (setting [14]) was 100%. The “24 hour percent mortality, Pyrolan with five parts II-K” value in series [2] (Pyrolan 0.063 μg/fly, five parts synergist) was 7%; in series [2] (Pyrolan 0.13 μg/fly, five parts synergist), 40%; in series [2] (Pyrolan 0.25 μg/fly, five parts synergist), 80%. Further, the “percent kill after 24 hours, synergist alone” value in series [2] turned out to be 10%.

For `C#CCOCc1cccc2ccccc12` [II-R, α-napthylmethyl 2-propynyl ether], the “24 hour mortality, with GS 13005” value in series [1] (setting [4]) came to 100%. The “percent insect mortality, synergist alone (GS 13005 test doses)” value in series [1] is on record as “zero”. Besides, in series [2], the “percent kill … with Diazinon” value amounted to 22%; the “percent kill … (GS 13005 part of Table XXXI)” value is given as 0%; the “percent kill after 24 hours, synergist alone” value is listed as 0%. Moreover, the “percent kill … with GS 13005” value in series [2] (setting [7]) is 49%. For the same compound, the “percent kill … with GS 13005” value in series [2] (setting [8]) came out at 65%. Further, in series [2] (setting [9]), the “percent kill … with GS 13005” value stood at 68%.

Consider `C#CCOC(c1ccc(Cl)cc1)C(C)[N+](=O)[O-]` (centres unmarked) [IV-C], for which the “24 hour mortality, with GS 13005” value in series [1] (setting [4]) turned out to be 90%; in series [1] (setting [5]), 30%. The figures for the “24 hour mortality, with Mobam” value in series [1] (setting [10]) and in series [1] (setting [11]) were 60% and 40%, respectively. Besides, in series [1], the “percent insect mortality, synergist alone (mobam test doses)” value is reported as “zero”. In series [1], the “percent insect mortality, synergist alone (GS 13005 test doses)” value is given as “zero”. Besides, the “percent kill … with Diazinon” value in series [2] is given as 29%. The “percent kill … with GS 13005” value in series [2] (setting [6]) worked out at 9%; in series [2] (setting [7]), 63%; in series [2] (setting [8]), 75%; in series [2] (setting [9]), 89%. In addition, the “percent kill after 24 hours, with Mobam” value in series [2] (setting [12]) is listed as 39%; in series [2] (setting [13]), 60%; in series [2] (setting [14]), 64%. Moreover, the “percent kill after 24 hours, synergist alone” value in series [2] amounted to 0%.
